Source: ChEMBL document CHEMBL1759955, “6-Benzoyl-3-hydroxypyrimidine-2,4-diones as dual inhibitors of HIV reverse transcriptase and integrase” (Bioorg Med Chem Lett, 2011)

Columns and labels:
CEM-SS [1] = assay: Cytotoxicity against human CEM-SS cells; assay type: cell-based
[2] = Therapeutic index, ratio of CC50 for human CEM-SS cells to EC50 for HIV-1 3B infected in human CEM-SS cells; assay type: cell-based; conditions: CEM-SS cells (uninfected, and infected with HIV-1 3B)
CEM-SS [3] = assay: Cytotoxicity against human CEM-SS cells assessed as viable cells at 10 uM; assay type: cell-based
[4] = tested on: Human immunodeficiency virus 1; assay: Antiviral activity against HIV-1 3B infected in human CEM-SS cells; assay type: functional, organism-based; conditions: Human immunodeficiency virus 1, 3B
[5] = target: T1, Human immunodeficiency virus type 1 integrase (Human immunodeficiency virus 1, UniProt Q7ZJM1); assay: Inhibition of HIV1 integrase strand transfer activity
T1 sequence (Q7ZJM1 whole entry): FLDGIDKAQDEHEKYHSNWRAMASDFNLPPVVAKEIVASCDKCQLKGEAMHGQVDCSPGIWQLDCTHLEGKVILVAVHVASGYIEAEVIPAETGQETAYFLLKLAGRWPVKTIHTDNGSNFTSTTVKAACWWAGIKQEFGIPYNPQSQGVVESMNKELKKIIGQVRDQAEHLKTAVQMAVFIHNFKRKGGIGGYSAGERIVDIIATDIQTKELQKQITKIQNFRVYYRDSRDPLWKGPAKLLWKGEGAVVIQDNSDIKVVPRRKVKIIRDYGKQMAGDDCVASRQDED

[6] = tested on: Human immunodeficiency virus 1; assay: Antiviral activity against HIV-1 3B infected in human CEM-SS cells assessed as protection against virus induced cytopathic effect at 10 uM; assay type: functional; conditions: Human immunodeficiency virus 1, 3B
[7] = target: T1, Human immunodeficiency virus type 1 integrase; assay: Inhibition of HIV1 integrase 3'-end processing activity
[8] = target: Human immunodeficiency virus type 1 reverse transcriptase (Human immunodeficiency virus 1) (UniProt Q72547); assay: Inhibition of HIV-1 reverse transcriptase at 10 uM
[9] = target: Human immunodeficiency virus type 1 reverse transcriptase (Human immunodeficiency virus 1) (UniProt Q72547); assay: Inhibition of HIV-1 reverse transcriptase at 100 uM
[10] = target: Human immunodeficiency virus type 1 reverse transcriptase (Human immunodeficiency virus 1, UniProt Q72547); assay: Inhibition of HIV-1 reverse transcriptase

SMILES | CC50 (CEM-SS [1]) | selectivity ratio [2] | Activity (CEM-SS [3]) | EC50 [4] | IC50 [5] | inhibition at 10 µM [6] | IC50 [7] | inhibition [8] | inhibition [9] | IC50 [10]
CCc1c(C(=O)c2ccccc2)n(COCCc2ccc(F)cc2)c(=O)n(O)c1=O | > 100 µM | > 290 | 100% | 0.34 µM | 4.1 µM | 100% | > 111 µM | 4% | 46% | 
CCc1c(C(=O)c2cc(C)cc(C)c2)n(COCCc2ccc(F)cc2)c(=O)n(O)c1=O |  |  | 81% |  | 7 µM | 56% | > 111 µM | 60% | 74% | 10 µM
CCc1c(C(=O)c2cc(C)cc(C)c2)n(COCc2ccccc2)c(=O)n(O)c1=O | 33 µM | 540 | 100% | 0.061 µM | 41 µM | 100% | > 111 µM | 79% | 92% | 1 µM
CCOCn1c(C(=O)c2cc(C)cc(C)c2)c(CC)c(=O)n(O)c1=O | 77 µM | 2600 | 100% | 0.03 µM | > 111 µM | 100% | > 111 µM | 61% | 94% | 0.5 µM
CCOCn1c(C(=O)c2ccccc2)c(CC)c(=O)n(O)c1=O | 94 µM | 41 | 100% | 2.3 µM | > 111 µM | 100% | > 111 µM |  |  | 43 µM
CCc1c(C(=O)c2cc(C)cc(C)c2)n(COCc2ccc(F)cc2)c(=O)n(O)c1=O | 28 µM | 78 | 100% | 0.36 µM | 21 µM | 100% | > 111 µM |  |  | 7.6 µM
CCc1c(C(=O)c2ccccc2)n(COCc2ccc(F)cc2)c(=O)n(O)c1=O | > 100 µM | > 50 | 100% | 2 µM | 25 µM | 100% | > 111 µM |  |  | 23 µM
CCc1c(C(=O)c2ccccc2)n(COCc2ccccc2)c(=O)n(O)c1=O | > 100 µM | > 71 | 98% | 1.4 µM | 37 µM | 100% | > 111 µM |  |  | 14 µM
